{"source": "patent US20230112418A1", "about": "“COMPOUND AND RADIOACTIVE LABELING COMPOUND” (NIHON MEDI-PHYSICS CO., LTD., priority 2020, published 2023)", "origin": "cited, not measured here", "details": "compared with kidney value one hour after the injection; EJNMMI Res 2012, J Nucl Med 2017; cited from earlier work"}
{"smiles": "O=C([O-])CN(CCN(CC(=O)[O-])Cc1cc(CCC(=O)NCCCCCC(=O)NCCCC[C@H](NC(=O)N[C@@H](CCC(=O)O)C(=O)O)C(=O)O)ccc1[O-])Cc1cc(CCC(=O)O)ccc1[O-].[68Ga+3].[OH3+]", "note": "[[^68Ga]Ga-PSMA-11]", "values": [{"measurement": "Accumulation in the kidney (literature)", "value": 139, "unit": "% ID/g"}]}
